pIC50: −log10 of the molar value.
Target: T1, Human M4 (Homo sapiens, UniProt P08173)
T1 construct: expressed in transfected cells; host or cells: CHO-K1 (ATCC), co-transfected with chimeric G protein Gqi5
T1 sequence (P08173 1-479): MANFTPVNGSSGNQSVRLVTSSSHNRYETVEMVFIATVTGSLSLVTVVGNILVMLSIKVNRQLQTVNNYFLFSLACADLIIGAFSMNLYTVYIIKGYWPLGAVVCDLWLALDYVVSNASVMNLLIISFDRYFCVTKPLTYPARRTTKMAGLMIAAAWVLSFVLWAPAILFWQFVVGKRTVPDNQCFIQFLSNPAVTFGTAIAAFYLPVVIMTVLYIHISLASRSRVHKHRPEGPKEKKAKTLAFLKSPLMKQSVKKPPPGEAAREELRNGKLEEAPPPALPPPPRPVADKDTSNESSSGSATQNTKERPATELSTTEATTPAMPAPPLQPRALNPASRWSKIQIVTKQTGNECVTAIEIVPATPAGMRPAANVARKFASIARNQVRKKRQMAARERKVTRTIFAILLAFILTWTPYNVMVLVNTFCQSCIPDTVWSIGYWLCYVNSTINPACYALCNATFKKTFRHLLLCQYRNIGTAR
Test: mAChR M4 cell-based functional assay (calcium flux, decrease of EC80 acetylcholine response) in M4/Gqi5/CHO-K1 cells
Settings: CHO-K1 cells with human M4 and Gqi5; for remaining activity at 30 µM: % ACh maximum at 30 μM, read-out: Human M4 Emin; for pIC50: antagonist mode: concentration-dependent decrease of response to EC80 acetylcholine
Procedure: Human or rat M4 cDNA, along with the chimeric G protein Gqi5, were transfected into Chinese hamster ovary (CHO-K1) cells purchased from the American Type Culture Collection using Lipofectamine2000. M4/Gqi5/CHO cells were grown in Ham's F-12 medium containing 10% heat-inactivated fetal bovine serum (FBS), 20 mM HEPES, 500 μg/mL G418 sulfate, and 200 μg/mL Hygromycin B.
For high throughput measurement of agonist-evoked increases in intracellular calcium, CHO-K1 cells stably expressing muscarinic receptors were plated in growth medium lacking G418 and hygromycin at 15,000 cells/20 μL/well in Greiner 384-well black-walled, tissue culture (TC)-treated, clear-bottom plates (VWR). Cells were incubated overnight at 37° C. and 5% CO2. The next day, cells were washed using an ELX 405 (BioTek) with assay buffer; the final volume was then aspirated to 20 μL. Next, 20 μL of a 2.3 μM stock of Fluo-4/acetoxymethyl ester (Invitrogen, Carlsbad, CA), prepared as a 2.3 mM stock in DMSO and mixed in a 1:1 ratio with 10% (w/v) Pluronic F-127 and diluted in assay buffer, was added to the wells and the cell plates were incubated for 50 min at 37° C. and 5% CO2. Dye was removed by washing with the ELX 405 and the final volume was aspirated to 20 μL. Compound master plates were formatted in a 10 point concentration-response curve (CRC) format (1:3 dilutions) in 100% DMSO with a starting concentration of 10 or 1 mM using a BRAVO liquid handler (Agilent). Test compound CRCs were then transferred to daughter plates (240 nL) using the Echo acoustic plate reformatter (Labcyte, Sunnyvale, CA) and then diluted into assay buffer (40 μL) to a 2× stock using a Thermo Fisher Combi (Thermo Fisher Scientific, Waltham, MA).
Calcium flux was measured using the Functional Drug Screening System (FDSS) 6000 or 7000 (Hamamatsu Corporation, Tokyo, Japan) as an increase in the fluorescent static ratio. Compounds were applied to cells (20 μL, 2×) using the automated system of the FDSS at 2 seconds into the protocol and the data were collected at 1 Hz. At 143 s, 10 μL of an EC20 concentration of the muscarinic receptor agonist acetylcholine was added (5×), followed by the addition of 12 μL of an EC80 concentration of acetylcholine at the 268 s time point (5×). Agonist activity was analyzed as a concentration-dependent increase in calcium mobilization upon compound addition. Positive allosteric modulator activity was analyzed as a concentration-dependent increase in the EC20 acetylcholine response. Antagonist activity was analyzed as a concentration-dependent decrease in the EC80 acetylcholine response; for the purposes of the tables herein, an IC50 (inhibitory concentration 50) was calculated as a concentration-dependent decrease of the response elicited by an EC80 concentration of acetylcholine. Concentration-response curves were generated using a four-parameter logistical equation in XLFit curve fitting software (IDBS, Bridgewater, NJ) for Excel (Microsoft, Redmond, WA) or Prism (GraphPad Software, Inc., San Diego, CA) or the Dotmatics software platform (Dotmatics, Bishop's Stortford, UK).
Compounds were synthesized as described above. Activity (IC50 and Emin) was determined in the mAChR M4 cell-based functional assay as described above and the data are shown in Table 1.

| Structure (SMILES) | remaining activity at 30 µM [%] | pIC50 |
| --- | --- | --- |
| Fc1cc(F)c(F)c(-c2ccc(NCc3csc4c3CCN(CC3CCOCC3)C4)nn2)c1 [A1, N-((6-((tetrahydro-2H-pyran-4-yl)methyl)-4,5,6,7-tetrahydrothieno[2,3-c]pyridin-3-yl)methyl)-6-(2,3,5-trifluorophenyl)pyridazin-3-amine] | 3 | 6.23 |
| Cn1cc2cc(-c3ccc(NCc4csc5c4CCN(CC4CCOCC4)C5)nn3)ccc2n1 [A3, 6-(2-methyl-2H-indazol-5-yl)-N-((6-((tetrahydro-2H-pyran-4-yl)methyl)-4,5,6,7-tetrahydrothieno[2,3-c]pyridin-3-yl)methyl)pyridazin-3-amine] | 9 | 6.28 |
| Fc1ccc(F)c(-c2ccc(NCc3csc4c3CCN(CC3CCOCC3)C4)nn2)c1 [A4, 6-(2,5-difluorophenyl)-N-((6-((tetrahydro-2H-pyran-4-yl)methyl)-4,5,6,7-tetrahydrothieno[2,3-c]pyridin-3-yl)methyl)pyridazin-3-amine] | 4 | 6.38 |
| FC1(F)CCN(c2ccc(NCc3csc4c3CCN(CC3CCOCC3)C4)nn2)CC1 [A6, 6-(4,4-difluoropiperidin-1-yl)-N-((6-((tetrahydro-2H-pyran-4-yl)methyl)-4,5,6,7-tetrahydrothieno[2,3-c]pyridin-3-yl)methyl)pyridazin-3-amine] | 7 | 6.18 |
| c1ccc(-c2ccc(NCc3csc4c3CCN(CC3CCOCC3)C4)nn2)cc1 [A7, 6-phenyl-N-((6-((tetrahydro-2H-pyran-4-yl)methyl)-4,5,6,7-tetrahydrothieno[2,3-c]pyridin-3-yl)methyl)pyridazin-3-amine] | 6 | 6.32 |
| O=S1(=O)CCCCN1c1ccc(NCc2csc3c2CCN(CC2CCOCC2)C3)nn1 [A8, 2-(6-(((6-((tetrahydro-2H-pyran-4-yl)methyl)-4,5,6,7-tetrahydrothieno[2,3-c]pyridin-3-yl)methyl)amino)pyridazin-3-yl)-1,2-thiazinane 1,1-dioxide] | 11 | 5.85 |
| Cc1ccc(CN2CCc3c(CNc4ccc(-c5cc(F)ccc5Cl)nn4)csc3C2)nc1 [A12, 6-(2-chloro-5-fluorophenyl)-N-((6-((5-methylpyridin-2-yl)methyl)-4,5,6,7-tetrahydrothieno[2,3-c]pyridin-3-yl)methyl)pyridazin-3-amine] | 10 | 5.83 |
| CN(Cc1csc2c1CCN(CC1CCOCC1)C2)c1ccc(-c2cc(F)ccc2Cl)nn1 [A14, 6-(2-chloro-5-fluorophenyl)-N-methyl-N-((6-((tetrahydro-2H-pyran-4-yl)methyl)-4,5,6,7-tetrahydrothieno[2,3-c]pyridin-3-yl)methyl)pyridazin-3-amine] | 7 | 5.77 |
| [2H]C([2H])([2H])N(Cc1csc2c1CCN(CC1CCOCC1)C2)c1ccc(-c2cc(F)ccc2Cl)nn1 [A15, 6-(2-chloro-5-fluorophenyl)-N-(methyl-d3)-N-((6-((tetrahydro-2H-pyran-4-yl)methyl)-4,5,6,7-tetrahydrothieno[2,3-c]pyridin-3-yl)methyl)pyridazin-3-amine] | 8 | 6.02 |
| Fc1ccc(Cl)c(-c2ccc(NCc3cccc4c3CCN(CC3CCOCC3)C4)nn2)c1 [B1, 6-(2-chloro-5-fluorophenyl)-N-((2-((tetrahydro-2H-pyran-4-yl)methyl)-1,2,3,4-tetrahydroisoquinolin-5-yl)methyl)pyridazin-3-amine] | 6 | 6.45 |

Molecules with a higher pIC50, results first:

| remaining activity at 30 µM [%] | pIC50 | Structure (SMILES) |
| --- | --- | --- |
| 3 | 7.07 | Fc1ccc(Cl)c(-c2ccc(NCc3csc4c3CCN(CC3CCOCC3)C4)nn2)c1 [A2, 6-(2-chloro-5-fluorophenyl)-N-((6-((tetrahydro-2H-pyran-4-yl)methyl)-4,5,6,7-tetrahydrothieno[2,3-c]pyridin-3-yl)methyl)pyridazin-3-amine] |
| 5 | 7.11 | Cc1ccc(F)cc1-c1ccc(NCc2csc3c2CCN(CC2CCOCC2)C3)nn1 [A5, 6-(5-fluoro-2-methylphenyl)-N-((6-((tetrahydro-2H-pyran-4-yl)methyl)-4,5,6,7-tetrahydrothieno[2,3-c]pyridin-3-yl)methyl)pyridazin-3-amine] |
| 5 | 7.00 | Fc1ccc(Cl)c(-c2ccc(NCc3csc4c3CCN(CC3CCCCC3)C4)nn2)c1 [A9, 6-(2-chloro-5-fluorophenyl)-N-((6-(cyclohexylmethyl)-4,5,6,7-tetrahydrothieno[2,3-c]pyridin-3-yl)methyl)pyridazin-3-amine] |
| 4 | 7.07 | CC(C)(C)CCN1CCc2c(CNc3ccc(-c4cc(F)ccc4Cl)nn3)csc2C1 [A10, 6-(2-chloro-5-fluorophenyl)-N-((6-(3,3-dimethylbutyl)-4,5,6,7-tetrahydrothieno[2,3-c]pyridin-3-y)methyl)pyridazin-3-amine] |
| 4 | 6.74 | Fc1ccc(Cl)c(-c2ccc(NCc3csc4c3CCN(Cc3ccccn3)C4)nn2)c1 [A11, 6-(2-chloro-5-fluorophenyl)-N-((6-(pyridin-2-ylmethyl)-4,5,6,7-tetrahydrothieno[2,3-c]pyridin-3-yl)methyl)pyridazin-3-amine] |
| 4 | 6.56 | OC1(CN2CCc3c(CNc4ccc(-c5cc(F)ccc5Cl)nn4)csc3C2)CCCCC1 [A13, 1-((3-(((6-(2-chloro-5-fluorophenyl)pyridazin-3-yl)amino)methyl)-4,7-dihydrothieno[2,3-c]pyridin-6(5H)-yl)methyl)cyclohexan-1-ol] |
| 5 | 7.33 | [2H]C([2H])(C1CCOCC1)N1CCc2c(CNc3ccc(-c4cc(F)ccc4Cl)nn3)csc2C1 [A16, 6-(2-chloro-5-fluorophenyl)-N-((6-((tetrahydro-2H-pyran-4-yl)methyl-d2)-4,5,6,7-tetrahydrothieno[2,3-c]pyridin-3-yl)methyl)pyridazin-3-amine] |
| 6 | 7.00 | CC(C)(C)CCN1CCc2c(CNc3ccc(-c4cc(F)ccc4Cl)nn3)cccc2C1 [B2, 6-(2-chloro-5-fluorophenyl)-N-((2-(3,3-dimethylbutyl)-1,2,3,4-tetrahydroisoquinolin-5-yl)methyl)pyridazin-3-amine] |
| 6 | 6.60 | Fc1ccc(Cl)c(-c2ccc(NCc3cccc4c3CCN(CC3CCCCC3)C4)nn2)c1 [B3, 6-(2-chloro-5-fluorophenyl)-N-((2-(cyclohexylmethyl)-1,2,3,4-tetrahydroisoquinolin-5-y1)methyl)pyridazin-3-amine] |
| 6 | 6.54 | Fc1ccc(Cl)c(-c2ccc(NCc3cccc4c3CCN(Cc3ccccn3)C4)nn2)c1 [B4, 6-(2-chloro-5-fluorophenyl)-N-((2-(pyridin-2-ylmethyl)-1,2,3,4-tetrahydroisoquinolin-5-yl)methyl)pyridazin-3-amine] |
